We go through eight molecules from patent US11834458B2, “Anti-cancer nuclear hormone receptor-targeting compounds” (Nuvation Bio Inc., priority 2021, dated 2023).

Read-outs that look alike come from different tables or passages of the source.

One may read the GI50 as the concentration at which growth is held to half of that of the control.

Experiment [1] has as its target full-length androgen receptor (Homo sapiens (Human), UniProt P10275). Put plainly: AR antagonism assay. It counts as cell-based. Here is the method:
AR antagonism assay: To evaluate AR antagonist activity, test compound was added to the assay plate (top dose 10 μM, 3 fold serial dilution, 10 point dose response). HEK293 cells stably expressing the full-length androgen receptor were seeded at a density of 20,000 cells/well in the assay plate. The assay plate was then incubated at room temperature for 10 minutes and at 37° C., 5% CO2 for 20 minutes. Testosterone was added to the assay plate at 1 nM final concentration and the assay plate incubated at 37° C., 5% CO2 for 20 h. After the incubation period, Steady-glo was added to the assay plate and mixed at room temperature for 20 minutes on an orbital shaker, before reading out on the EnVision plate reader.

The target of another experiment is AR (Homo sapiens (Human), UniProt P10275, T878A). Put plainly: AR binding assay. Here is the method:
AR binding assay: To assess AR binding, test compound (top dose 10 μM, 4 fold serial dilution, 8 point dose response) and control (progesterone) were transferred to the assay plate. Cytosol from LnCaP cells was added to the plate, followed by addition of radiolabeled ^3H-R1881 at a final concentration of 1 nM. The plate was sealed, and the reaction was incubated at 300 rpm at 4° C. for 24 hrs. Radioligand absorption buffer (10 mM Tris-HCl, pH 7.4; 1.5 mM EDTA; 1 mM DTT; 0.25% charcoal; 0.0025% dextran) was then added to the plate, mixed, and incubated at 4° C. for 15 minutes. The plate was then centrifuged at 3000 rpm for 30 minutes at 4° C. The supernatant was transferred to the scint-tube and Tri-carb was used for scintillation counting. The data was analyzed using GraphPadPrism v5.0 and binding IC50 was determined as the concentration where 50% inhibition of radioligand binding was observed.

Another experiment has as its system LNCap cells. Put plainly: Cell viability assay, LNCap. Particulars: Homo sapiens, 144 h. Format: cell-based. How it is done:
(§1) Cell viability assay: LNCap, 22Rv1, MCF7, MDAMB361, T47D, and IEC6 cells are seeded at a density of 500-2000 cells/well in 96 well plates, and a ‘T0’ (timepoint 0) was included along with the assay plate. The plates are then incubated at 37° C., 5% CO2 in a cell culture incubator overnight. On the next day, the ‘T0’ plate was assayed using CellTiterGlo (Promega, Inc) according to the manufacturer's instructions. The appropriate compounds are diluted in DMSO and added to the assay plate (final DMSO concentration of 0.1-0.2%) on the next day. The assay plates are incubated for 6 days at 37° C., 5% CO2. After the incubation period, the plates are assayed using CellTiterGlo (Promega, Inc) according to the manufacturer's instructions and luminescence was read on the EnVision plate reader. Inhibition of the tested compounds was determined by the following formula: Inhibition rate (%)=(1−(RLU compound−RLU day0)/(RLU control−RLU day0))*100%. GraphPadPrism was used to analyze the data and determine GI50/IC50 values.

In another experiment the test system is 22Rv1 cells. The experiment can be described thus: Cell viability assay, 22Rv1. It counts as cell-based. The settings on record: Homo sapiens. How it is done:
as §1

The subject of the next experiment is IEC6 cells. Put plainly: Cell viability assay, IEC6. It counts as cell-based. The settings on record: Rattus norvegicus. Here is the method:
as §1

The mark [2] stands for this setting: HEK293 cells stably expressing full-length androgen receptor, testosterone 1 nM, 20 h, read-out: AR antagonism.
[3] abbreviates: LNCaP, read-out: LNCap (GI50, nM).
Where [4] appears, read: 22Rv1, 144 h, read-out: 22RV1 (GI50, nM).
Setting [5] is: IEC-6, 144 h, read-out: IEC-6 (IC50, nM).
Setting [6] is: cytosol from LnCaP cells, 3H-R1881 1 nM, 4° C. 24 hrs, read-out: AR binding.
[7] abbreviates: LNCap cells, 6 days, CellTiterGlo, read-out: LNCap (GI50).
Where [8] appears, read: 144 h, 22RV1 cells, 6 days, CellTiterGlo, read-out: 22RV1 (GI50).
Setting [9] is: 144 h, IEC-6 cells, 6 days, CellTiterGlo, read-out: IEC-6 (IC50).

Chain of full-length androgen receptor (P10275 whole entry): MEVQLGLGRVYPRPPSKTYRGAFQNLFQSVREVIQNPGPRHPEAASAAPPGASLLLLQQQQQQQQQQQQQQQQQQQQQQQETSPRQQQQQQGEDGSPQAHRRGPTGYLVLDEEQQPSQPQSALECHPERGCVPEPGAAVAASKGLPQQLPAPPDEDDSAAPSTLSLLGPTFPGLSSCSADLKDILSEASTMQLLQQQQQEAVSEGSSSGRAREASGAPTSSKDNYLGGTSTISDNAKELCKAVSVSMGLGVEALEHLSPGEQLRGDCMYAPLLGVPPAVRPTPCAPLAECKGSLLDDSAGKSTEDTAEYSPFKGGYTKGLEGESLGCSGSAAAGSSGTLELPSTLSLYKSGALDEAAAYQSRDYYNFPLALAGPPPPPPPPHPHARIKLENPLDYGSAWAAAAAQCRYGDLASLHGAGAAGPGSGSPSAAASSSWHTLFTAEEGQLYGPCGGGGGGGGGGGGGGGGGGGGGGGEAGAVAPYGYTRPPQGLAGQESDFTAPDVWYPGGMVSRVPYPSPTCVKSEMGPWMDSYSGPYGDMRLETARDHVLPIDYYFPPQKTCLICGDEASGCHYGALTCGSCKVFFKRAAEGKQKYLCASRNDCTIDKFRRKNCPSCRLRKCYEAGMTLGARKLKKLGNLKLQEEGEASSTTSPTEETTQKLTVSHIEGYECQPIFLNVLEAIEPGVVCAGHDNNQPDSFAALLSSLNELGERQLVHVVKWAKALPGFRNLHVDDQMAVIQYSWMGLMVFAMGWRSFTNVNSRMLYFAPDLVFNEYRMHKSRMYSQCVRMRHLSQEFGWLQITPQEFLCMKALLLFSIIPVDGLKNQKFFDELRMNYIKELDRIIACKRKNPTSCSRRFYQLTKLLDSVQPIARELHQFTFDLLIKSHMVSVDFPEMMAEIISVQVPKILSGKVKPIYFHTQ
Chain of AR (P10275 whole entry T878A): as the sequence (P10275 whole entry) above, with T878A counted along it

Take `CC[C@@]1(O)C(=O)OCc2c1cc1n(c2=O)Cc2cc3c(CN(C)C)c(OC(=O)N4CCN(CCCCCCO[C@@H]5CC[C@@H]6[C@H]7CC[C@@H]8CC(=O)CC[C@@]8(C)[C@@H]7CC[C@]65C)CC4)ccc3nc2-1` [Compound 8, (S)-10-((Dimethylamino)methyl)-4-ethyl-4-hydroxy-3,14-dioxo-3,4,12,14-tetrahydro-1H-pyrano[3′,4′:6,7]indolizino[1,2-b]quinolin-9-yl 4-(6-(((5R,8S,9R,10R,13R,14R,17R)-10,13-dimethyl-3-oxohexadecahydro-1H-cyclopenta[a]phenanthren-17-yl)oxy)hexyl)piperazine-1-carboxylate]: the IC50 in experiment [1] (setting [2]) was over 1000 nM; on AR, 10 to 500 nM; in the experiment on IEC6 cells (setting [5]) it was over 1000 nM. Further, the GI50 in the experiment with LNCap cells (setting [3]) and with 22Rv1 cells (setting [4]) was 10 to 500 nM in each case.

For the molecule `CC[C@@]1(O)C(=O)OCc2c1cc1n(c2=O)Cc2cc3c(CN4CCN(C(=O)C5CCN(c6ccc(C(=O)N[C@H]7CC[C@H](Oc8ccc(C#N)c(Cl)c8)CC7)nn6)CC5)CC4)c(O)ccc3nc2-1` [Compound 14, N-((1r,4r)-4-(3-Chloro-4-cyanophenoxy)cyclohexyl)-6-(4-(4-(((S)-4-ethyl-4,9-dihydroxy-3,14-dioxo-3,4,12,14-tetrahydro-1H-pyrano[3′,4′:6,7]indolizino[1,2-b]quinolin-10-yl)methyl)piperazine-1-carbonyl)piperidin-1-yl)pyridazine-3-carboxamide], the IC50 was 10 to 500 nM in experiment [1], 10 to 500 nM on AR (setting [6]) and over 1000 nM in the experiment on IEC6 cells (setting [9]). Moreover, the GI50 in the experiment with LNCap cells (setting [7]) and with 22Rv1 cells (setting [8]) was 10 to 500 nM in each case.

For the molecule `CC[C@@]1(O)C(=O)OCc2c1cc1n(c2=O)Cc2cc3c(CN4CCN(C(=O)CCCCCOc5ccc(C(=O)N[C@H]6CC[C@H](Oc7ccc(C#N)c(Cl)c7)CC6)cc5)CC4)c(O)ccc3nc2-1` [Compound 12, N-((1r,4r)-4-(3-Chloro-4-cyanophenoxy)cyclohexyl)-4-((6-(4-(((S)-4-ethyl-4,9-dihydroxy-3,14-dioxo-3,4,12,14-tetrahydro-1H-pyrano[3′,4′:6,7]indolizino[1,2-b]quinolin-10-yl)methyl)piperazin-1-yl)-6-oxohexyl)oxy)benzamide], the IC50 was 10 to 500 nM in experiment [1], over 1000 nM at AR (setting [6]) and over 1000 nM in the experiment on IEC6 cells (setting [9]). Besides, the GI50 in the experiment on LNCap cells (setting [7]) lay in the range of 10 to 500 nM; in the experiment with 22Rv1 cells (setting [8]), 501 to 1000 nM.

`CC[C@@]1(O)C(=O)OCc2c1cc1n(c2=O)Cc2cc3c(CN(C)C)c(OC(=O)N4CCC(N(C)C(=O)CO[C@H]5CC[C@H]6[C@@H]7CC[C@H]8CC(=O)CC[C@]8(C)[C@H]7CC[C@]56C)CC4)ccc3nc2-1` [Compound 20, (S)-10-((Dimethylamino)methyl)-4-ethyl-4-hydroxy-3,14-dioxo-3,4,12,14-tetrahydro-1H-pyrano[3′,4′:6,7]indolizino[1,2-b]quinolin-9-yl 4-(2-(((5S,8R,9S,10S,13S,14S,17S)-10,13-dimethyl-3-oxohexadecahydro-1H-cyclopenta[a]phenanthren-17-yl)oxy)-N-methylacetamido)piperidine-1-carboxylate]: the IC50 in experiment [1] (setting [2]) was over 1000 nM; on AR, 10 to 500 nM; in the experiment with IEC6 cells (setting [5]), over 1000 nM. In addition, the GI50 with LNCap cells (setting [3]) and in the experiment on 22Rv1 cells (setting [4]) was 10 to 500 nM in each case.

As to `CC[C@@]1(O)C(=O)OCc2c1cc1n(c2=O)Cc2cc3c(CN4CCN(CC5CCN(c6ccc(C(=O)N[C@H]7CC[C@H](Oc8ccc(C#N)c(Cl)c8)CC7)nn6)CC5)CC4)c(O)ccc3nc2-1` [Compound 11, N-((1r,4r)-4-(3-Chloro-4-cyanophenoxy)cyclohexyl)-6-(4-((4-(((S)-4-ethyl-4,9-dihydroxy-3,14-dioxo-3,4,12,14-tetrahydro-1H-pyrano[3′,4′:6,7]indolizino[1,2-b]quinolin-10-yl)methyl)piperazin-1-yl)methyl)piperidin-1-yl)pyridazine-3-carboxamide], the IC50 in experiment [1] was in the range of 10 to 500 nM; at AR (setting [6]), 10 to 500 nM; in the experiment on IEC6 cells (setting [9]), 501 to 1000 nM. Besides, the GI50 in the experiment with LNCap cells (setting [7]) and in the experiment with 22Rv1 cells (setting [8]) was 10 to 500 nM each time.

As for `CC[C@@]1(O)C(=O)OCc2c1cc1n(c2=O)Cc2cc3c(CN4CCC(N(C)C(=O)CO[C@H]5CC[C@H]6[C@@H]7CC[C@H]8CC(=O)CC[C@]8(C)[C@H]7CC[C@]56C)CC4)c(O)ccc3nc2-1` [Compound 18, 2-(((5S,8R,9S,10S,13S,14S,17S)-10,13-Dimethyl-3-oxohexadecahydro-1H-cyclopenta[a]phenanthren-17-yl)oxy)-N-(1-(((S)-4-ethyl-4,9-dihydroxy-3,14-dioxo-3,4,12,14-tetrahydro-1H-pyrano[3′,4′:6,7]indolizino[1,2-b]quinolin-10-yl)methyl)piperidin-4-yl)-N-methylacetamide], the IC50 in experiment [1] was over 1000 nM; on AR (setting [6]), 10 to 500 nM; in the experiment on IEC6 cells (setting [9]), over 1000 nM. The GI50 in the experiment on LNCap cells (setting [7]) and in the experiment with 22Rv1 cells (setting [8]) was 10 to 500 nM in each case.

Turning to `CC[C@@]1(O)C(=O)OCc2c1cc1n(c2=O)Cc2cc3c(CN(C)C)c(OC(=O)N(C)C4CCN(C(=O)CO[C@H]5CC[C@H]6[C@@H]7CC[C@H]8CC(=O)CC[C@]8(C)[C@H]7CC[C@]56C)CC4)ccc3nc2-1` [Compound 21, (S)-10-((Dimethylamino)methyl)-4-ethyl-4-hydroxy-3,14-dioxo-3,4,12,14-tetrahydro-1H-pyrano[3′,4′:6,7]indolizino[1,2-b]quinolin-9-yl (1-(2-(((5S,8R,9S,10S,13S,14S,17S)-10,13-dimethyl-3-oxohexadecahydro-1H-cyclopenta[a]phenanthren-17-yl)oxy)acetyl)piperidin-4-yl)(methyl)carbamate], the results for the IC50 (in experiment [1] (setting [2]); on AR; in the experiment with IEC6 cells (setting [5])) were over 1000 nM, 10 to 500 nM and over 1000 nM, respectively. Besides, the GI50 in the experiment with LNCap cells (setting [3]) and in the experiment with 22Rv1 cells (setting [4]) was 10 to 500 nM each time.

On to `CC[C@@]1(O)C(=O)OCc2c1cc1n(c2=O)Cc2cc3c(CN(C)C)c(OCCCCCOc4ccc(C(=O)N[C@H]5CC[C@H](Oc6ccc(C#N)c(Cl)c6)CC5)cc4)ccc3nc2-1` [Compound 7, N-((1r,4r)-4-(3-Chloro-4-cyanophenoxy)cyclohexyl)-4-((5-(((S)-10-((dimethylamino)methyl)-4-ethyl-4-hydroxy-3,14-dioxo-3,4,12,14-tetrahydro-1H-pyrano[3′,4′:6,7]indolizino[1,2-b]quinolin-9-yl)oxy)pentyl)oxy)benzamide], for which the IC50 in experiment [1] was 10 to 500 nM; on AR (setting [6]) it was over 1000 nM; in the experiment on IEC6 cells (setting [9]), 501 to 1000 nM. Besides, the GI50 in the experiment with LNCap cells (setting [7]) and in the experiment with 22Rv1 cells (setting [8]) was 10 to 500 nM throughout.
